These results are taken from patent EP3693362B1, “PARASITIC PLANT GERMINATION REGULATOR” (National University Corporation Tokai National Higher …, priority 2017, dated 2019).

pIC50: −log10 of the molar value. A value given as a limit tells only on which side of the number the result lay.

The first experiment concerns the target T1, HTL11 (Striga hermonthica, UniProt A0A0M4AS18).
T1 sequence (A0A0M4AS18 1-268): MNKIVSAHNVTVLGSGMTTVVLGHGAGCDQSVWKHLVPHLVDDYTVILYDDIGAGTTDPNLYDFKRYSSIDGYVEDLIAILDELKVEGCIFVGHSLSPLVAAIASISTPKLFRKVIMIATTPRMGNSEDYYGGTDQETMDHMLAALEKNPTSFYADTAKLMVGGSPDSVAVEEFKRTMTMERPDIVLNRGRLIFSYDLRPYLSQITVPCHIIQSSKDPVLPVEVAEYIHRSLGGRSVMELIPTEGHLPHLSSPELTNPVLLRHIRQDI
In words: Affinity for strigolactone receptor, YLG probe competition (fluorescence). Type of experiment: binding. The following applies: competition with YLG, test range 0.01 to 10 µM, pH 7.0, read-out: IC50 values of test compounds. How it is done:
(§1) PTL 1 reports that the affinity of a test compound for the strigolactone receptor can be evaluated by reacting strigolactone with a probe for evaluation of affinity for a strigolactone receptor (e.g., YLG) in the presence of the test compound, and measuring the fluorescence emitted from the decomposition product of YLG. Therefore, the compounds synthesized in Example 1 were used as the test compounds, and the affinity for the strigolactone receptor was evaluated by a similar method to the above. The details are as follows.
(§2) An Arabidopsis thaliana strigolactone receptor (AtD14) was produced in accordance with a usual method. More specifically, cDNA of the receptor was obtained by RT-PCR, and expression and purification were carried out in E. coli. Additionally, Striga strigolactone receptors were produced by the method disclosed in PTL 1 (ShHTL1: amino acid SEQ ID NO: 1, ShHTL2: amino acid SEQ ID NO: 2, ShHTL3: amino acid SEQ ID NO: 3, ShHTL4: amino acid SEQ ID NO: 4, ShHTL5: amino acid SEQ ID NO: 5, ShHTLS: amino acid SEQ ID NO: 6, ShHTL7: amino acid SEQ ID NO: 7, ShHTLS: amino acid SEQ ID NO: 8, ShHTL9: amino acid SEQ ID NO: 9, ShHTL10: amino acid SEQ ID NO: 10, and ShHTL11: amino acid SEQ ID NO: 11.)
(§3) One hundred microliters of a reaction solution containing each of the obtained strigolactone receptors ([…]), YLG (final concentration: […]), and each of the test compounds (final concentration: 0.01 to 10 µM) or the control compound (5-deoxystrigol, final concentration: 0.01 to 10 µM) as a competitive compound (100 mM HEPES, 150 mM NaCl, pH: 7.0, 0.1% DMSO) was prepared and reacted in a 96 black-well plate (Greiner). Sixty after the initiation of the reaction, fluorescence was detected at an excitation wavelength of 480 nm and a detection wavelength of 520 nm using a fluorescence detector (SpectraMax i3, manufactured by Molecular Devices), and the fluorescence intensity was measured. Based on the measurement results of fluorescence intensity, a Lineweaver-Burk plot was created to calculate the Km values, and the IC50 values of each of the test compounds and the control compound, which are competitive compounds.
(§4) In Table 7, HTL1 to HTL11 refer to strigolactone receptors (SEQ ID NOs: 1 to 11), and AtD14 refer to the Arabidopsis thaliana strigolactone receptor.
By pIC50 is commonly meant the IC50 on a negative log10 scale, so that one unit is a factor of ten. As to `CCCCOc1ccc(S(=O)(=O)N2CCN(C(=O)OC3C=CC(=O)O3)CC2)cc1` (stereo not drawn) [Compound 13], the pIC50 is less than 5.00.

As to `CC1=CC(OC(=O)NCc2ccccc2)OC1=O` (stereo not drawn) [Comparison Compound 1, reference compound], the pIC50 is 6.18.

Regarding `CC1=CC(OC=C2C(=O)OC3C4=C(CCCC4(C)C)CC23)OC1=O` (stereo not drawn) [5-Ddeoxystriqol, 5-deoxystrigol, reference compound], the pIC50 is 5.80.

With `CCCCOc1ccc(S(=O)(=O)N2CCN(C(=O)OC3C=C(C)C(=O)O3)CC2)cc1` (stereo not drawn) [Compound 1], the pIC50 is 5.74.

A further experiment concerns the target T2, HTL2 (Striga hermonthica, UniProt A0A0M4AMP1).
T2 sequence (A0A0M4AMP1 1-285): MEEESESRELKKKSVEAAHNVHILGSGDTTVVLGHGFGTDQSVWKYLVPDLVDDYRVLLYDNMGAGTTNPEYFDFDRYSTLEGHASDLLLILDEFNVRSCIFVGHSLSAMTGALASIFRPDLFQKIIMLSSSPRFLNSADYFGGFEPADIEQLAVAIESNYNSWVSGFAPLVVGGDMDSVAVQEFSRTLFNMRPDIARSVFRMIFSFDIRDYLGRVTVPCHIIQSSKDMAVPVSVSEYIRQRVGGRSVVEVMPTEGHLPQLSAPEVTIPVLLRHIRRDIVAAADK
The description is as above. The experiment is classed as binding. Particulars: competition with YLG, test range 0.01 to 10 µM, pH 7.0, read-out: IC50 values of test compounds. How it is done: as §1, §2, §3, §4
Take `CCCCOc1ccc(S(=O)(=O)N2CCN(C(=O)OC3C=CC(=O)O3)CC2)cc1` (stereo not drawn) [Compound 13]: the pIC50 was less than 5.00.

As for `CC1=CC(OC(=O)NCc2ccccc2)OC1=O` (stereo not drawn) [Comparison Compound 1, reference compound], the negative-log IC50 (pIC50) was less than 5.00.

For the compound `CC1=CC(OC=C2C(=O)OC3C4=C(CCCC4(C)C)CC23)OC1=O` (stereo not drawn) [5-Ddeoxystriqol, 5-deoxystrigol, reference compound], the pIC50 was 5.05.

With `CCCCOc1ccc(S(=O)(=O)N2CCN(C(=O)OC3C=C(C)C(=O)O3)CC2)cc1` (stereo not drawn) [Compound 1], the pIC50 was less than 5.00.

For the next experiment, the target named is T3, HTL4 (Striga hermonthica, UniProt A0A0M4AMQ0).
T3 sequence (A0A0M4AMQ0 1-271): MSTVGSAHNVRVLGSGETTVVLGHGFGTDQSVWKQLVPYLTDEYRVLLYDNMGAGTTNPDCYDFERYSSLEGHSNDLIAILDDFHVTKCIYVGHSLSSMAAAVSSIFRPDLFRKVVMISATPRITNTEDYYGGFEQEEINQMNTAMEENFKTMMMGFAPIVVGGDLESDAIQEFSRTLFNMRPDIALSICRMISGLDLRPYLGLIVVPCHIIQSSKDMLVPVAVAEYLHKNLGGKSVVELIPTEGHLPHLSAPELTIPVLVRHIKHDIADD
The description is as above. The experiment is classed as binding. The following applies: competition with YLG, test range 0.01 to 10 µM, pH 7.0, read-out: IC50 values of test compounds. The method, then:
as §1, §2, §3, §4
`CCCCOc1ccc(S(=O)(=O)N2CCN(C(=O)OC3C=CC(=O)O3)CC2)cc1` (stereo not drawn) [Compound 13]: the pIC50 is less than 5.00.

On to `CC1=CC(OC(=O)NCc2ccccc2)OC1=O` (stereo not drawn) [Comparison Compound 1, reference compound], for which the pIC50 was less than 5.00.

For `CC1=CC(OC=C2C(=O)OC3C4=C(CCCC4(C)C)CC23)OC1=O` (stereo not drawn) [5-Ddeoxystriqol, 5-deoxystrigol, reference compound], the pIC50 was 6.52.

Regarding `CCCCOc1ccc(S(=O)(=O)N2CCN(C(=O)OC3C=C(C)C(=O)O3)CC2)cc1` (stereo not drawn) [Compound 1], the pIC50 was less than 5.00.

The target in the next experiment is T4, HTL6 (Striga hermonthica, UniProt A0A0M4AUV4).
T4 sequence (A0A0M4AUV4 1-271): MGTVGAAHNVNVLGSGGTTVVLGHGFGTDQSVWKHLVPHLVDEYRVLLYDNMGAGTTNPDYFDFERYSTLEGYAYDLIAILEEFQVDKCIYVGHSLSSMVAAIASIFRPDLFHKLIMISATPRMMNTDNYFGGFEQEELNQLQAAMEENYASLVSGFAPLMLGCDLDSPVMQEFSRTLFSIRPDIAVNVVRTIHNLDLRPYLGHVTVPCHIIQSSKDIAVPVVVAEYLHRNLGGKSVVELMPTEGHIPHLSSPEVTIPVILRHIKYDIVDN
Described as above. The experiment is classed as binding. Particulars: competition with YLG, test range 0.01 to 10 µM, pH 7.0, read-out: IC50 values of test compounds. How it is done: as §1, §2, §3, §4
Consider `CCCCOc1ccc(S(=O)(=O)N2CCN(C(=O)OC3C=CC(=O)O3)CC2)cc1` (stereo not drawn) [Compound 13], for which the pIC50 is less than 5.00.

Consider `CC1=CC(OC(=O)NCc2ccccc2)OC1=O` (stereo not drawn) [Comparison Compound 1, reference compound], for which the pIC50 was less than 5.00.

For `CC1=CC(OC=C2C(=O)OC3C4=C(CCCC4(C)C)CC23)OC1=O` (stereo not drawn) [5-Ddeoxystriqol, 5-deoxystrigol, reference compound], the pIC50 was 6.72.

For `CCCCOc1ccc(S(=O)(=O)N2CCN(C(=O)OC3C=C(C)C(=O)O3)CC2)cc1` (stereo not drawn) [Compound 1], the negative-log IC50 (pIC50) was less than 5.00.

Another experiment concerns the target T5, HTL7 (Striga hermonthica, UniProt A0A0M3PNA2).
T5 sequence (A0A0M3PNA2 1-271): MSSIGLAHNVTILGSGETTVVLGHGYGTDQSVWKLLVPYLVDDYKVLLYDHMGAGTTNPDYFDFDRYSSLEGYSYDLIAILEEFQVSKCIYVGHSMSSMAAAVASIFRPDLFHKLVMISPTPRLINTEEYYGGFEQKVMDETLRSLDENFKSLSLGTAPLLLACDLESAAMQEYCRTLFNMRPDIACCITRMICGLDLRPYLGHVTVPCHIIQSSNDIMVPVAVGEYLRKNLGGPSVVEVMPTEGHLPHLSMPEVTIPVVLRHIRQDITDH
The description is as above. Type of experiment: binding. Particulars: competition with YLG, test range 0.01 to 10 µM, pH 7.0, read-out: IC50 values of test compounds. The method, then:
as §1, §2, §3, §4
Regarding `CCCCOc1ccc(S(=O)(=O)N2CCN(C(=O)OC3C=CC(=O)O3)CC2)cc1` (stereo not drawn) [Compound 13], the pIC50 is 6.12.

Regarding `CC1=CC(OC(=O)NCc2ccccc2)OC1=O` (stereo not drawn) [Comparison Compound 1, reference compound], the pIC50 is less than 5.00.

Take `CC1=CC(OC=C2C(=O)OC3C4=C(CCCC4(C)C)CC23)OC1=O` (stereo not drawn) [5-Ddeoxystriqol, 5-deoxystrigol, reference compound]: the negative logarithm of the IC50 (pIC50) is 6.92.

Take `CCCCOc1ccc(S(=O)(=O)N2CCN(C(=O)OC3C=C(C)C(=O)O3)CC2)cc1` (stereo not drawn) [Compound 1]: the negative-log IC50 (pIC50) was 6.51.

Another experiment concerns the target T6, HTL9 (Striga hermonthica, UniProt A0A0M4AGW0).
T6 sequence (A0A0M4AGW0 1-271): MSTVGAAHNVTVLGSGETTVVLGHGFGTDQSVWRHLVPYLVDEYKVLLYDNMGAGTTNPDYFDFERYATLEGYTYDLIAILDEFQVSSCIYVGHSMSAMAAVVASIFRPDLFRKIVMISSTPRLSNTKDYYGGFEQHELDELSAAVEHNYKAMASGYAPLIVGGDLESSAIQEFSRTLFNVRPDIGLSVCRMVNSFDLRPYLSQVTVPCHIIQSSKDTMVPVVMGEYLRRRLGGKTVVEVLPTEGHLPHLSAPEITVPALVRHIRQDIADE
The description is as above. Particulars: competition with YLG, test range 0.01 to 10 µM, pH 7.0, read-out: IC50 values of test compounds. Type of experiment: binding. The method, then:
as §1, §2, §3, §4
As for `CCCCOc1ccc(S(=O)(=O)N2CCN(C(=O)OC3C=CC(=O)O3)CC2)cc1` (stereo not drawn) [Compound 13], the pIC50 was less than 5.00.

Regarding `CC1=CC(OC(=O)NCc2ccccc2)OC1=O` (stereo not drawn) [Comparison Compound 1, reference compound], the negative-log IC50 (pIC50) is less than 5.00.

Turning to `CC1=CC(OC=C2C(=O)OC3C4=C(CCCC4(C)C)CC23)OC1=O` (stereo not drawn) [5-Ddeoxystriqol, 5-deoxystrigol, reference compound], the pIC50 is 5.92.

In the case of `CCCCOc1ccc(S(=O)(=O)N2CCN(C(=O)OC3C=C(C)C(=O)O3)CC2)cc1` (stereo not drawn) [Compound 1], the pIC50 was less than 5.00.
